Assay results from paper PMC3340383, “Synthesis and Evaluation of a Series of 2-Substituted-5-Thiopropylpiperazine (Piperidine)-1,3,4-Oxadiazoles Derivatives as Atypical Antipsychotics” (PLoS ONE, 2012).
Like-named read-outs stand apart in the source and are kept apart here.

What was measured:
[1] = molecular target: T1, serotonin 5-HT2A receptor (Rattus norvegicus, UniProt P14842); test: 5-HT2A binding assay ([3H]ketanserin, rat brain cortex); conditions: read-out: Ki±SEM, 5HT2A
T1 construct: Rat cerebral cortex was homogenized in 20 volumes of ice-cold Tris-HCl buffer; from tissue; host or cells: rat brain (cerebral) cortex
Protocol: (§1) All the new compounds were dissolved in 5% DMSO. The following specific radioligands and tissue sources were used: (a) serotonin 5-HT1A receptor, [^3H]8-OH-DPAT, rat brain cortex; (b) serotonin 5-HT2A receptor, [^3H]ketanserin, rat brain cortex; (c) serotonin 5-HT2C receptor, [^3H]mesulergine, rat brain cortex; (d) dopamine D2 receptor, [^3H]spiperone, rat striatum; (e) dopamine D3 receptor, [^3H]spiperone, rat olfactory tubercle (f) histamine H1 receptor, [^3H] pyrilamine, guinea pig cerebellum.
(§2) Total binding was determined in the absence of no-specific binding and compounds. Specific binding was determined in the presence of compounds. Non-specific binding was determined as the difference between total and specific binding.
(§3) Percentage of inhibition (%) = (total binding − specific binding)×100%/(total binding − nonspecific binding).
(§4) Ki values were calculated based on the Cheng and Prussoff equation: Ki = IC50/(1+C/Kd) where C represents the concentration of the hot ligand used and Kd its receptor dissociation constant were calculated for each labeled ligand. Mean Ki values and SEM were reported for at least three independent experiments.
Rat cerebral cortex was homogenized in 20 volumes of ice-cold Tris-HCl buffer (50 mM, pH 7.7) using an ULTRA TURAX homogeniser, and centrifuged at 32000 g for 20 min. The resulting pellet was resuspended in the same quantity of the buffer centrifuged for 20 min. The final pellet was resuspended in 50 volumes of the Tris-HCl buffer.
Total binding each assay tube was added 900 µL of the tissue suspension, 50 µL of 0.6 nM [^3H]ketanserin (60.0 Ci/mmol, Perkin Elmer Life Sciences, Boston, MA, USA), 50 µL Tris-HCl buffer.
Non-specific binding each assay tube was added 900 µL of the tissue suspension, 50 µL of 0.6 nM [^3H]ketanserin, 50 µL of 10 µM methisergide.
Specific binding each assay tube was added 900 µL of the tissue suspension, 50 µL of 0.6 nM [^3H]ketanserin, […] of new compounds or reference drug.
(§5) The incubation was followed by a rapid vacuum filtration through Whatman GF/B glass filters, and the filtrates were washed twice with 5 mL cold buffer and transferred to scintillation vials. Scintillation fluid (3.0 mL) was added and the radioactivity bound was measured using a Beckman LS 6500 liquid scintillation counter.

[2] = molecular target: T2, serotonin 5-HT1A receptor (Rattus norvegicus, UniProt P19327); test: 5-HT1A binding assay ([3H]8-OH-DPAT, rat brain cortex); conditions: read-out: Ki±SEM, 5HT1A
T2 construct: Rat cerebral cortex was homogenized in 20 volumes of ice-cold Tris-HCl buffer; from tissue; host or cells: rat brain (cerebral) cortex
T2 sequence (P19327 1-422): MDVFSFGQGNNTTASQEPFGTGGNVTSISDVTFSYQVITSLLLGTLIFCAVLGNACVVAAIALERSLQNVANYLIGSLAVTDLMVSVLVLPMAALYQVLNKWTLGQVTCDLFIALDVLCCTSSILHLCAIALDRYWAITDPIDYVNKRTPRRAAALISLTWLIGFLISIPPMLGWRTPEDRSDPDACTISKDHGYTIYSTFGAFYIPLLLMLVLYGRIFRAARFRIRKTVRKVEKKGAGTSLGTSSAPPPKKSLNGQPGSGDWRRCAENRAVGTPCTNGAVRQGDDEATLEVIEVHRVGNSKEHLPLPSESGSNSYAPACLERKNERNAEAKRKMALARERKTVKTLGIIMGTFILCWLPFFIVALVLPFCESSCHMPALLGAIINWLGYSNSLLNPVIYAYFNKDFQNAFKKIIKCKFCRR
Protocol: as §1, §2, §3, §4
Rat cerebral cortex was homogenized in 20 volumes of ice-cold Tris-HCl buffer (50 mM, pH 7.7) using an ULTRA TURAX homogeniser, and was then centrifuged at 32000 g for 10 min. […] The final pellet was resuspended in Tris-HCl buffer containing 10 µM Pargyline, 4 mM CaCl2 and 0.1% ascorbic acid.
Total binding each assay tube was added 900 µL of the tissue suspension, 50 µL of 0.5 nM [^3H]8-OH-DPAT (187.4 Ci/mmol, Perkin Elmer Life Sciences, Boston, MA, USA), 50 µL Tris-HCl buffer containing 10 µM Pargyline, 4 mM CaCl2 and 0.1% ascorbic acid.
Non-specific binding each assay tube was added 900 µL of the tissue suspension, 50 µL of 0.5 nM [^3H]8-OH-DPAT, 50 µL of 10 µM serotonin.
Specific binding each assay tube was added 900 µL of the tissue suspension, 50 µL of 0.5 nM [^3H]8-OH-DPAT, 50 µL of new compounds or reference drug.
as §5, with “5mL” for “5 mL”

[3] = molecular target: T3, dopamine D2 receptor (Rattus norvegicus, UniProt P61169); test: D2 dopaminergic binding assay ([3H]spiperone, rat striatum); conditions: read-out: Ki±SEM, D2
T3 construct: Rat striatum was homogenized in 20 volumes of ice-cold 50 mM Tris-HCl buffer; from tissue; host or cells: rat striatum
Protocol: as §1, §2, §3, §4
Rat striatum was homogenized in 20 volumes of ice-cold 50 mM Tris-HCl buffer (pH 7.7) using an ULTRA TURAX homogeniser, and centrifuged twice for 10 min at 48,000 g with resuspension of the pellet in fresh buffer. The final pellet was resuspended in 50 mM ice-cold Tris-HCl containing 120 mM NaCl, 5 mM KCl, 2 mM CaCl2, 1 mM MgCl2, 0.1% ascorbic acid and 5 µM pargyline.
Total binding each assay tube was added 900 µL of the tissue suspension, 50 µL of 0.5 nM [^3H]spiperone (16.2 Ci/mmol; Perkin Elmer Life Sciences, Boston, MA, USA), 50 µL Tris-HCl buffer containing 120 mM NaCl, 5 mM KCl, 2 mM CaCl2, 1 mM MgCl2, 0.1% ascorbic acid and 5 µM pargyline.
Non-specific binding each assay tube was added 900 µL of the tissue suspension, 50 µL of 0.5 nM [^3H]spiperone, 50 µL of 10 µM (+)-butaclamol.
Specific binding each assay tube was added 900 µL of the tissue suspension, 50 µL of 0.5 nM [^3H]spiperone, 50 µL of new compounds or reference drug.
as §5

[4] = [3H]ketanserin, rat brain cortex, mean of three experiments, >10000 marked b: Ki not calculated, inhibition at 10 µM too low
[5] = [3H]8-OH-DPAT, rat brain cortex, mean of three experiments, >10000 marked b: Ki not calculated, inhibition at 10 µM too low
[6] = [3H]spiperone, rat striatum, mean of three experiments, >10000 marked b: Ki not calculated, inhibition at 10 µM too low

T3 sequence (P61169 whole entry): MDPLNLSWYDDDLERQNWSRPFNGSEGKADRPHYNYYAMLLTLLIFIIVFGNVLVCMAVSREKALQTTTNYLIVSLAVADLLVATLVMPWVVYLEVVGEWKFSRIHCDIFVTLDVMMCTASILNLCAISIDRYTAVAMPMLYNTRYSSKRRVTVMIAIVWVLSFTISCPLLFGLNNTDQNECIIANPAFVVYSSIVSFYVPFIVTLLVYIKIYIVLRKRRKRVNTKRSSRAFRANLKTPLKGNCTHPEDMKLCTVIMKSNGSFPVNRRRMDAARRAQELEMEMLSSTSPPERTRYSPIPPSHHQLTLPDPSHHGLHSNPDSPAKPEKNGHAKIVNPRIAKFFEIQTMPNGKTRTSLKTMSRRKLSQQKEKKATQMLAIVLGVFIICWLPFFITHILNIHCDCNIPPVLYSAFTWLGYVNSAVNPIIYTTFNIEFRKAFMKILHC
T1 sequence (P14842 whole entry): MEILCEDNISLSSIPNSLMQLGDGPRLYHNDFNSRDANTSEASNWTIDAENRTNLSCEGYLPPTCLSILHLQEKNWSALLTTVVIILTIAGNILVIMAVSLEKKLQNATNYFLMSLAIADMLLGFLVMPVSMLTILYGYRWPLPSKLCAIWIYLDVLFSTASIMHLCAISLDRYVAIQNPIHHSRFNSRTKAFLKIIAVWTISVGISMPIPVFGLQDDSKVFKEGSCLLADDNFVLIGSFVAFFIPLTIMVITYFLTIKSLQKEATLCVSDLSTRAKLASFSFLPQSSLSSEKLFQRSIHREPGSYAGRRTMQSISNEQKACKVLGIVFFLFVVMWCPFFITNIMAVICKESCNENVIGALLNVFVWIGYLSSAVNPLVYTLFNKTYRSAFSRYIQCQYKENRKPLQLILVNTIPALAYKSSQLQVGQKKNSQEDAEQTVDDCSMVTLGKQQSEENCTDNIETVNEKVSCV

| SMILES | Ki [1] [nM] | melting point [°C] | Ki [2] [nM] | Ki [3] [nM] | Ki [1, 4] [nM] | Ki [2, 5] [nM] | Ki [3, 6] [nM] |
| --- | --- | --- | --- | --- | --- | --- | --- |
| Cc1cccc(N2CCN(CCCSc3nnc(-c4ccccc4)o3)CC2)c1C [Compound 7, 2-((3-(4-(2,3-dimethylphenyl)piperazin-1-yl)propyl)thio)-5-phenyl-1,3,4-oxadiazole] | 374 ± 33 | 86 to 88 | > 10000 | > 10000 | – | – | – |
| COc1ccccc1N1CCN(CCCSc2nnc(-c3ccccc3)o2)CC1 [Compound 8, 2-((3-(4-(2-methoxyphenyl)piperazin-1-yl)propyl)thio)-5-phenyl-1,3,4-oxadiazole] | > 10000 | – | > 10000 | > 10000 | – | – | – |
| Clc1cccc(N2CCN(CCCSc3nnc(-c4ccccc4)o3)CC2)c1Cl [Compound 9, 2-((3-(4-(2,3-dichlorophenyl)piperazin-1-yl)propyl)thio)-5-phenyl-1,3,4-oxadiazole] | > 10000 | 82 to 84 | > 10000 | > 10000 | – | – | – |
| FC(F)(F)c1cccc(N2CCN(CCCSc3nnc(-c4ccccc4)o3)CC2)c1 [Compound 10, 2-((3-(4-(3-(trifluoromethyl)phenyl)piperazin-1-yl)propyl)thio)-5-phenyl-1,3,4-oxadiazole] | > 10000 | 68 to 69 | > 10000 | > 10000 | – | – | – |
| c1ccc(-c2nnc(SCCCN3CCN(c4nsc5ccccc45)CC3)o2)cc1 [Compound 11, 2-((3-(4-(benzo[d]isothiazol-3-yl)piperazin-1-yl)propyl)thio)-5-phenyl-1,3,4-oxadiazole] | 61.4 ± 5.8 | 69 to 71 | 19 ± 2.3 | 2570 ± 321 | – | – | – |
| Fc1ccc2c(C3CCN(CCCSc4nnc(-c5ccccc5)o4)CC3)noc2c1 [Compound 12, 2-(3-(4-(6-fluorobenzo[d]isoxazol-3-yl)piperidin-1-yl)propylthio)-5-phenyl-1,3,4-oxadiazole] | 11.3 ± 1.2 | 106 to 107 | 18.9 ± 1.6 | 2970 ± 381 | – | – | – |
| COc1ccc(-c2nnc(SCCCN3CCN(c4nsc5ccccc45)CC3)o2)cc1 [Compound 13, 2-((3-(4-(benzo[d]isothiazol-3-yl)piperazin-1-yl)propyl)thio)-5-(4-methoxyphenyl)-1,3,4-oxadiazole] | – | – | – | – | 17.2 ± 1.6 | > 10000 | 96.7 ± 9.5 |
| Clc1ccc(-c2nnc(SCCCN3CCN(c4nsc5ccccc45)CC3)o2)cc1 [Compound 15, 2-((3-(4-(benzo[d]isothiazol-3-yl)piperazin-1-yl)propyl)thio)-5-(4-chlorophenyl)-1,3,4-oxadiazole] | – | – | – | – | 27.2 ± 2.8 | 14.2 ± 1.3 | 126 ± 13.5 |
| FC(F)(F)c1ccc(-c2nnc(SCCCN3CCN(c4nsc5ccccc45)CC3)o2)cc1 [Compound 17, 2-((3-(4-(benzo[d]isothiazol-3-yl)piperazin-1-yl)propyl)thio)-5-(4-(trifluoromethyl)phenyl)-1,3,4-oxadiazole] | – | – | – | – | 50.8 ± 5.3 | > 10000 | 487 ± 46.3 |
| Fc1ccc2c(C3CCN(CCCSc4nnc(-c5ccc(C(F)(F)F)cc5)o4)CC3)noc2c1 [Compound 18, 2-(3-(4-(6-fluorobenzo[d]isoxazol-3-yl)piperidin-1-yl)propylthio)-5-(4-(trifluoromethyl)phenyl)-1,3,4-oxadiazole] | 24.7 ± 2.8 | 122 to 124 | 51 ± 4.9 | 94.5 ± 8.9 | – | – | – |
| Fc1ccc(-c2nnc(SCCCN3CCN(c4nsc5ccccc45)CC3)o2)cc1 [Compound 19, 2-(3-(4-(benzo[d]isothiazol-3-yl)piperazin-1-yl)propylthio)-5-(4-fluorophenyl)-1,3,4-oxadiazole] | – | – | – | – | > 10000 | > 10000 | > 10000 |
| Fc1ccc(-c2nnc(SCCCN3CCC(c4noc5cc(F)ccc45)CC3)o2)cc1 [Compound 20, 2-(3-(4-(6-fluorobenzo[d]isoxazol-3-yl)piperidin-1-yl)propylthio)-5-(4-fluorophenyl)-1,3,4-oxadiazole] | – | – | – | – | 15.8 ± 1.3 | 14.8 ± 1.5 | 125 ± 12.4 |
| c1ccc2c(-c3nnc(SCCCN4CCN(c5nsc6ccccc56)CC4)o3)cccc2c1 [Compound 21, 2-(3-(4-(benzo[d]isothiazol-3-yl)piperazin-1-yl)propylthio)-5-(naphthalen-1-yl)-1,3,4-oxadiazole] | – | – | – | – | 114 ± 12.1 | 346 ± 35.9 | 138 ± 13.6 |
| c1csc(-c2nnc(SCCCN3CCN(c4nsc5ccccc45)CC3)o2)c1 [Compound 23, 2-(3-(4-(benzo[d]isothiazol-3-yl)piperazin-1-yl)propylthio)-5-(thiophen-2-yl)-1,3,4-oxadiazole] | – | – | – | – | 54.1 ± 6.9 | 450 ± 49.8 | > 10000 |
| Fc1ccc2c(C3CCN(CCCSc4nnc(-c5cccs5)o4)CC3)noc2c1 [Compound 24, 2-(3-(4-(6-fluorobenzo[d]isoxazol-3-yl)piperidin-1-yl)propylthio)-5-(thiophen-2-yl)-1,3,4-oxadiazole] | – | – | – | – | 50.3 ± 6.5 | 96.6 ± 10.3 | 91 ± 11.2 |
| c1ccc2c(N3CCN(CCCSc4nnc(-c5ccncc5)o4)CC3)nsc2c1 [Compound 25, 2-(3-(4-(benzo[d]isothiazol-3-yl)piperazin-1-yl)propylthio)-5-(pyridin-4-yl)-1,3,4-oxadiazole] | 390 ± 36.5 | 93 to 94 | > 10000 | > 10000 | – | – | – |
| Fc1ccc2c(C3CCN(CCCSc4nnc(-c5ccncc5)o4)CC3)noc2c1 [Compound 26, 2-(3-(4-(6-fluorobenzo[d]isoxazol-3-yl)piperidin-1-yl)propylthio)-5-(pyridin-4-yl)-1,3,4-oxadiazole] | – | – | – | – | 59.2 ± 7.6 | 60.6 ± 8.6 | 260 ± 32.1 |
